# Assay results taken from patent publication US7625917B2, “Thiolesters and uses thereof” (priority 1998, dated 2009).
# Like-named read-outs stand apart in the source and are kept apart here.
# Columns and labels:
# HIV-1 virus = assay: Virus inactivation by PCR assay of treated virions; assay type: cell-based
# From the text: The thiolester-treated virions can also be tested for infectivity. The virions are suspended in media (rather than solubilized) and added to target cells. The cultures are then examined to determine whether the virions are still active. To determine whether the treated virus particles are active, the cells are monitored for the presence of intracellularly-synthesized viral RNA using, for example, the polymerase chain reaction (PCR) (Rice (1993) Proc. Natl. Acad. Sci. USA 90:9721;Turpin (1996) J. Virol. 70:6180). Alternatively, cytoprotection assays can be used (Weislow (1993) J. Natl. Cancer Inst. 81:577).
# An example of a compound which can be used as a control in the gel mobility shift assay is azodicarbonamide (ADA), a compound which is commercially available from the Aldrich Chemical Company (Milwaukee, Wis.).
# [1] = molecular target: T1, Virion-associated NCp7 proteins from cell-free HIV-1MN (Human immunodeficiency virus type 1 group M subtype B, UniProt P05888); assay: Virion NCp7 cross-linking (non-reducing Western blotting)
# T1 construct: attack on the mature NCp7 retroviral zinc fingers in the cell-free virus; endogenous in cells
# Protocol: The interaction of zinc finger inhibitors, such as the thiolesters of the invention, with cell-free virus can result in modification of intravirion NCp7 protein and loss of infectivity. Virion-associated NCp7 proteins from cell-free HIV-1MN were treated with thiolester compounds 44 and 45. They were also evaluated by non-reducing Western blotting using HIV-1 NCp7-specific antibodies. […] Cross-linking by compound 45 was due to formation of intermolecular disulfide bonds because reduction with 2-mercaptoethanol (β-ME) completely reversed the gel retardation.
# Virion cross linking was performed as described by Rice (1995) Science 270:1194-1197 and Turpin (1997) Antiviral Chem. Chemother. 8:60-67. Briefly, highly purified HIV-1MN (11.8 μg total protein) was incubated for 2 hour with concentrations of compound. Virions were concentrated and residual compound was removed by centrifugation (18,000×g, 1 h, 4° C.). The viral pellet was solubilized in 0.5 M Tris-HCl, (pH 6.8), 50% glycerol, 8% SDS and 0.4% bromophenol blue and proteins resolved by Western blotting. Western blotting to detect the expression of HIV-1 proteins in U1 cells or virus pellets for virion cross-linking experiments was carried out as described by Turpin (1996) J. Virol. 70:6180-6189. Briefly, 50 μg of total cellular protein for U1 experiments or the. total virion pellet (11.8 μg total viral protein) for NCp7 cross linking studies was resolved on 4 to 20% polyacrylamide gels in SDS with Tris-Glycine (Novex, San Diego Calif.). Samples for reduced gels were boiled for 5 min in the presence of 5% β-ME prior to loading. Resolved proteins were electroblotted on to polyvinylidene difluoride (PVDF) membranes, and HIV-1 specific proteins were detected using a mixture of goat anti-HIV-1 NCp7 and p24 or anti-NCp7 for virion proteins alone (a kind gift of L. E. Henderson, AIDS Vaccine Program NCI-FCRDC, Frederick, Md.). Western blots were developed using standard chemiluminescence methodologies, as produced and described by Dupont-NEN, Wilmington, Del.
# Purified concentrated retrovirus and antisera against the purified NC protein of the virus can be used to test the ability of a specific compound to penetrate the virus and react with the NC protein by forming disulfide complexes in the core of the virus. Compound are mixed with the whole retrovirus under reaction conditions appropriate for the compound. The virus is then removed from the reagent by centrifugation and disrupted in, e.g., standard SDS-PAGE sample buffer with (reduced) and without (non-reduced) 2-mercaptoethanol. The viral proteins are then separated by standard SDS-PAGE and the sample examined for the presence or absence of the monomeric zinc finger protein in the non-reduced sample. Depending upon the virus used in the experiment and the conditions of electrophoresis, the zinc finger protein can be visualized by protein staining methods, or by immuno-blot methods. Compounds which react with the zinc finger protein by attacking the zinc finger complexes and forming disulfide cross-linked products inactivate the virus. Thus, compounds of interest (i.e., those which cause cross-linking), including the thiolesters of the invention, reduce the amount of monomeric zinc finger protein detected.
# CEM-SS cells = assay: cells; assay type: cell-based
# Protocol: Agents Chemother. […] Briefly, cells are infected with HIV-1 RF (or other virus to be tested) in the presence of various dilutions of test compounds (thiolesters and controls). The cultures are incubated for seven days. […] The cell death is measured by XTT dye reduction. XTT is a soluble tetrazolium dye that measures mitochondrial energy output, similar to MTT. Positive controls using dextran sulfate (an attachment inhibitor) or 3′-Azido-2′-3′-dideoxythymidine, AZT (a reverse transcriptase inhibitor) are added to each assay. Individual assays are done in duplicate using a sister plate method.
# [2] = molecular target: T2, recombinant HIV-1 NCp7 protein (Human immunodeficiency virus type 1 group M subtype B, UniProt P03347); assay: Trp37 zinc finger fluorescence (zinc ejection) assay; assay type: biochemical
# T2 construct: recombinant HIV-1 NCp7 protein
# Protocol: Zinc finger reactivity was measured using a Zn specific fluorochrome, TSQ, N-(6-methoxy-8-quinolyl)-p-toluenesulfonamide, assay or a Trp37 zinc finger fluorescence assay. Fluorescent measurements of the Trp37 residue in the C-terminal finger of recombinant HIV-1 NCp7 protein were performed as described by Rice (1995) Science 270:1194-1197; Rice (1997) Antimicrob. Agents Chemother. 41:419-426. Measurement of Zn ejection from both fingers was measured using the Zn-selective fluorchrome probe TSQ (Molecular Probes, Eugene Oreg.) as described by Rice (1996) J. Med. Chem 39:3606-3616. […] Briefly, 50 nM NCp7 was treated with test compounds for 1 hour at RT in […] buffer containing 10% glycerol and 50 mM Tris-HCl (pH 7.5). Labeled oligomer (0.1 picomole, end labeled [^32P] was added in an equal volume of buffer containing 10% glycerol, 50 mM Tris-HCl (pH 7.5), 400 mM KCl and 40 mM MgCl2. The reaction was continued for 15 min at room temperature, and a total of […] (or ¼ of the total reaction volume) was separated on nondenaturing 4.5% polyacrylamide gels in 0.5× Tris-Borate electrophoresis buffer. NCp7-oligomer complexes were visualized by autoradiography.
# Changes in the intrinsic fluorescence of aromatic protein moieties are commonly used to monitor a reaction which involves a change in protein conformation. In the present invention, fluorescence can be used to monitor the loss of metal ion from a zinc finger, e.g., the loss of zinc from a CCHC retroviral zinc finger protein, after contact with a thiolester of the invention. The intrinsic fluorescence of Trp37 in the second zinc finger of HIV-1 NC protein has been used to monitor nucleic acid binding and conformation of the zinc finger complex (see, Summers (1992) supra).
# Zinc ejection is measured by the ability of compounds to chemically attack the cysteines in purified NCp7 protein resulting in a loss of fluorescence due to the. movement of the tryptophan 37 residue […] position on the protein. Zinc ejection is measured and expressed as either percent decrease in total fluorescence or decrease in relative fluorescence units per min during a 30 min assay (RFU/min). A thiolester is considered within the scope of the invention if any amount of zinc ejection is detected.
# HIV-1RF = assay: XTT cytoprotection assay (antiviral activity); assay type: cell-based
# From the text: One exemplary means to determine antiviral activity is with CEM-SS cells and virus (e.g., HIV-1RF) (MOI=0.01) using the XTT (2,3-bis[2-methoxy-4-nitro-5-sulfophenyl]-5-[(phenylamino)carbonyl]-2H-tetrazolium hydroxide) cytoprotection assay, as described by Rice (1993) PNAS 90:9721-9724, and Rice (1997) Antimicrob. Agents Chemother. 41:419-426. Briefly, cells are infected with HIV-1 RF (or other virus to be tested) in the presence of various dilutions of test compounds (thiolesters and controls). The cultures are incubated for seven days. During this time control cultures without protective compounds (i.e., compounds with anti-viral activity) replicate virus, induce syncytia, and result in about 90% cell death. The cell death is measured by XTT dye reduction. XTT is a soluble tetrazolium dye that measures mitochondrial energy output, similar to MTT. Positive controls using dextran sulfate (an attachment inhibitor) or 3′-Azido-2′-3′-dideoxythymidine, AZT (a reverse transcriptase inhibitor) are added to each assay. Individual assays are done in duplicate using a sister plate method.
# Effective antiviral concentrations providing 50% cytoprotection (EC50), and cellular growth inhibitory concentrations causing 50% cytotoxicity (IC50) are calculated.
# [3] = Table 5, 50% cytotoxicity, read-out: IC50
# [4] = Table 5, average decrease in relative fluorescence units over 30 min
# [5] = Table 10, 50% cytotoxicity, read-out: IC50
# [6] = Table 10, average decrease in relative fluorescence units over 30 min
compound,measurement,setting,value
"NC(=O)N=NC(N)=O [ADA, azodicarbonamide]",inactivation of HIV-1 virus (in words),HIV-1 virus,inactivates HIV-1 virus
"Cc1cn([C@H]2C[C@H](N=[N+]=[N-])[C@@H](CO)O2)c(=O)[nH]c1=O [AZT, 3′-Azido-2′-3′-dideoxythymidine, reference compound]",intravirion NCp7 cross-linking (in words),[1],failed to cross-link NCp7
O=C(Nc1ccc(S(=O)(=O)c2ccc(NS(=O)(=O)Cc3ccccc3[N+](=O)[O-])cc2)cc1)c1ccccc1SSc1ccccc1C(=O)Nc1ccc(S(=O)(=O)c2ccc(NS(=O)(=O)Cc3ccccc3[N+](=O)[O-])cc2)cc1 [Compound 34 D],IC50,"CEM-SS cells; Table 3, 50% cytotoxicity, read-out: IC50",> 316 µM
same,cellular toxicity (in words),CEM-SS cells; high test dose of 316 μM,no toxicity
same,Zinc Finger Reactivity RFU/min,"[2]; Table 3, average decrease in relative fluorescence",1.5 RFU/min
same,antiviral activity (in words),HIV-1RF,significant antiviral activity
same,EC50,HIV-1RF; read-out: EC50 (concentration inhibiting 50% virus replication),12.3 µM
"CC(=O)NS(=O)(=O)c1ccc(NC(=O)c2ccccc2NC(=O)CCCl)cc1 [Compound 37, N-[2-(3-chloro-propionamido)benzoyl]sulfacetamide]",IC50,CEM-SS cells; [3],>316 µM
same,zinc finger reactivity (in words),[2],modest zinc finger reactivity
same,Zinc Finger Reactivity RFU/min,[2]; [4],2.0 RFU/min
same,antiviral activity (in words),HIV-1RF,neither had appreciable antiviral activity
CC(=O)NS(=O)(=O)c1ccc(NC(=O)c2cccc(NC(=O)CCCl)c2)cc1 [Compound 38],IC50,CEM-SS cells; [3],103 µM
same,zinc finger reactivity (in words),[2],modest zinc finger reactivity
same,Zinc Finger Reactivity RFU/min,[2]; [4],3.9 RFU/min
same,antiviral activity (in words),HIV-1RF,neither had appreciable antiviral activity
same,EC50,"HIV-1RF; Table 5, read-out: EC50",38 µM
CC(=O)NS(=O)(=O)c1ccc(NC(=O)c2ccccc2NC(=O)CCl)cc1 [Compound 39],IC50,CEM-SS cells; [3],202 µM
same,Zinc Finger Reactivity RFU/min,[2]; [4],0.3 RFU/min
same,antiviral activity (in words),HIV-1RF,completely inactive
CC(=O)NS(=O)(=O)c1ccc(NC(=O)c2ccccc2SC(C)=O)cc1 [Compound 40],IC50,CEM-SS cells; [3],56.7 µM
same,IC50,CEM-SS cells; read-out: IC50 range,~50 µM
same,Zinc Finger Reactivity RFU/min,[2]; [4],4.2 RFU/min
same,EC50,"HIV-1RF; Table 5, read-out: EC50",2.8 µM
CC(=O)NS(=O)(=O)c1ccc(NC(=O)c2ccccc2SC(=O)c2ccccc2)cc1 [Compound 41],IC50,CEM-SS cells; [3],45.7 µM
same,IC50,CEM-SS cells; read-out: IC50 range,~50 µM
same,Zinc Finger Reactivity RFU/min,[2]; [4],2.2 RFU/min
same,EC50,"HIV-1RF; Table 5, read-out: EC50",2.6 µM
COc1ccc(C(=O)Sc2ccccc2C(=O)Nc2ccc(S(=O)(=O)NC(C)=O)cc2)cc1 [Compound 42],IC50,CEM-SS cells; [3],43.7 µM
same,IC50,CEM-SS cells; read-out: IC50 range,~50 µM
same,Zinc Finger Reactivity RFU/min,[2]; [4],3.5 RFU/min
same,EC50,"HIV-1RF; Table 5, read-out: EC50",2.8 µM
O=C(CCCCBr)Sc1ccccc1C(=O)Nc1ccc(S(=O)(=O)c2ccc([N+](=O)[O-])cc2)cc1 [Compound 46],IC50,"CEM-SS cells; Table 6, 50% cytotoxicity, read-out: IC50",21.7 µM
same,Zinc Finger Reactivity RFU/min,"[2]; Table 6, average decrease in relative fluorescence units over 30 min",1 RFU/min
same,EC50,"HIV-1RF; Table 6, read-out: EC50 %",1.6 µM
CC(=O)NS(=O)(=O)c1ccc(NC(=O)c2ccccc2SC(=O)CCC[n+]2ccccc2)cc1 [Compound 54],IC50,CEM-SS cells; [5],175 µM
same,Zinc Finger Reactivity RFU/min,[2]; [6],2.2 RFU/min
same,EC50,"HIV-1RF; Table 10, read-out: EC50 %",10.1 µM
CC(=O)NS(=O)(=O)c1ccc(NC(=O)c2ccccc2SC(=O)CCCCC[n+]2ccccc2)cc1 [Compound 55],IC50,CEM-SS cells; [5],69.7 µM
same,Zinc Finger Reactivity RFU/min,[2]; [6],1.9 RFU/min
same,EC50,"HIV-1RF; Table 10, read-out: EC50 %",10.5 µM
CC(=O)NS(=O)(=O)c1ccc(NC(=O)c2ccccc2NC(=O)CCCC[n+]2ccccc2)cc1 [Compound 56],IC50,CEM-SS cells; [5],>316 µM
same,Zinc Finger Reactivity RFU/min,[2]; [6],2.6 RFU/min
same,antiviral activity (in words),HIV-1RF,inactive
CC(=O)NS(=O)(=O)c1ccc(NC(=O)c2ccccc2SC(=O)CCCC[n+]2cccc(Cl)c2)cc1 [Compound 57],IC50,CEM-SS cells; [5],264 µM
same,Zinc Finger Reactivity RFU/min,[2]; [6],0.2 RFU/min
same,EC50,"HIV-1RF; Table 10, read-out: EC50 %",54 µM
